From US10639345B2, “Compositions for preserving photoreceptor cells, retinal pigment epithelial cells, or visual function” (Massachusetts Eye and Ear Infirmary, priority 2010, dated 2020)
Where a SMILES comes first, the peptide text is derived from it. The star is where a group is joined. Cbz = O=C(OCc1ccccc1)*; CH2F = FC*

Assays:
photoreceptors [1] = assay: TEM quantification of photoreceptor death after retinal detachment in WT mice; assay type: in vivo; conditions: day three after retinal detachment
Description: (§1) TEM was performed as previously described (Hisatomi T et al. (2008). J. CLIN. INVEST. 118:2025-2038). […] Over 200 photoreceptors each eye were photographed and subjected to quantification of cell death modes in a masked fashion. Photoreceptors showing cellular shrinkage and nuclear condensation were defined as apoptotic cells, while photoreceptors associated with cellular and organelle swelling and discontinuities in nuclear and plasma membrane were defined as necrotic cells. The presence of electron-dense granular materials were reported to occur subsequent to both apoptotic and necrotic cell death and cells with these findings were labeled simply as end-stage cell death/unclassified (Hisatomi T et al. (2003) AM. J. PATHOL. 162:1869-1879; Erickson P A et al. (1983) INVEST. OPHTHALMOL. VIS. SCI. 24:927-942).
The morphology of the RIP-3−/− retina after retinal detachment was also assessed by TEM. […] RIP-3 deficiency inhibits the switch to necrotic cell death by Z-VAD treatment and prevents photoreceptor death after retinal detachment. Scale bar, 5 μm.

photoreceptors [2] = assay: Normalized ONL thickness ratio after experimental retinal detachment; assay type: in vivo, rat; conditions: subretinal Z-VAD 300 μM and/or Nec-1 400 μM
Description: Photoreceptor death was also assessed by TUNEL analysis at three days after retinal detachment in retina treated with either vehicle, Nec-1, Z-VAD or Nec-1+Z-VAD. […] Nine sections for each eye specimen were randomly selected, and the central area of detached retina and the mid-peripheral region of attached retina were photographed. The ONL thickness ratio was measured at ten points in each section by masked observers. […] (GCL: ganglion cell layer, INL: inner nuclear layer. *, P<0.05. Scale bar, 100 μm). […]
TNF-α protein contents in rat retina were determined using ELISA Kit for rat TNF-α (Invitrogen, Carlsbad, Calif.). Goat anti-mouse/rat TNF-α blocking antibody was purchased from R&D Systems (Minneapolis, Minn.). The rat eyes were subretinally injected with 1% of sodium hyaluronate containing 0.1 mg/ml of anti-TNF-α antibody or control antibody.

Fas-L = assay: Fas ligand expression after retinal detachment (real-time PCR); assay type: in vivo; conditions: compared to vehicle treatment
Description: Total RNA extraction and reverse transcription were performed as previously reported (Nakazawa T et al. (2006) MOL VIS 12:867-878; Hisatomi T et al. (2008). J CLIN INVEST 118:2025-2038). A real-time PCR assay was performed with Prism 7700 Sequence Detection System (Applied Biosystems, Foster City, Calif.). TaqMan Gene Expression assays were also used to check the expression of MCP-1 (Rn00580555_m1), TNF-α (Rn99999017_m1), and Fas-L (Rn00563754_m1). For relative comparison of each gene, the Ct value of real-time PCR data was analyzed with the ΔΔCt method and normalized by an endogenous control (18S ribosomal RNA).
TNF-α and Fas-L are potent inducer of programmed necrosis as well as apoptosis (Degterev A (2005) NAT CHEM BIOL 1:112-119). The effectiveness of a TNF-α blockade after retinal detachment was measured. […] However, other factors may also contribute to photoreceptor death, as the effect of TNF-α blockade was not as effective as that of Nec-1+Z-VAD treatment. Further, Fas ligand expression increased in Z-VAD-treated retina after retinal detachment compared to vehicle treatment (FIG. 12C), and may play a role in promoting necrotic photoreceptor death in Z-VAD-treated eyes.

photoreceptors [3] = assay: Normalized ONL thickness ratio after retinal detachment in RIP-3−/− mice
Description: TUNEL assays were used to measure the amount of apoptotic and necrotic cell death (Grasl-Kraupp et al., HEPTALOGY (1995) 21(5):1465-8). TUNEL and quantification of TUNEL positive cells in ONL were performed as described above by using the ApopTag Fluorescein In Situ Apoptosis Detection Kit (Millipore, Billerica, Mass.). The ratio of the ONL thickness to the thickness of neuroretina in the central area of the detached retina was determined by National Institutes of Health ImageJ software and standardized by that in the attached retina. The data are expressed as normalized ONL thickness ratio [(ONL/neuroretina thickness in detached retina)/(ONL/neuroretina thickness in attached retina)].

photoreceptors [4] = assay: TEM quantification of apoptotic and necrotic photoreceptor death after retinal detachment; assay type: in vivo; conditions: day three after retinal detachment, ONL
Description: The morphology of photoreceptors after retinal detachment was examined by transmission electron microscopy (TEM) and propidium iodide (PI) staining and the effect of treatment with Z-VAD and/or a Nec-1 compound of Formula I-C was analyzed.
as §1
On day three after retinal detachment, photoreceptor death caused by apoptosis was almost twice that caused by necrosis in vehicle-treated retina (% apoptotic cells: 21.7±1.3%, necrotic cells: 13.3±1.0%, unclassified: 4.4±1.4%; FIGS. 7A and 7E).

[5] = tested on: CD11b-positive macrophage/microglia; assay: CD11b-positive cell infiltration after retinal detachment in RIP-3−/− eyes; assay type: in vivo, RIP-3−/− mice
Description: Immunofluorescence was performed as previously reported (Hisatomi et al. (2008) J CLIN INVEST 118:2025-2038. The enucleated eyes were frozen in OCT compound (Sakura Finetechnical Co., Tokyo, Japan). Five μm-thick sections were cut, air dried and fixed in cold acetone for 10 minutes. Rat anti-CD11b (1:50; BD Biosciences, San Diego, Calif.) was used as the primary antibody and incubated at 4° C. overnight. A nonimmune serum was used as a negative control. Alexa Fluor 594-conjugated goat anti-rat IgG (Invitrogen, Carlsbad, Calif.) was used as the secondary antibody and incubated at room temperature for one hour. The specimens were imaged by confocal microscopy using the Leica HCX APOL40× lens.
Since the release of intracellular content in necrosis results in secondary inflammation, changes in the inflammatory response after retinal detachment were investigated by immunohistochemistry and immunofluorescence with an antibody against CD11b. FIG. 11A-B show IHC for CD11b (FIG. 11A) and quantification of CD11b-positive cells in control retina without retinal detachment and in retina treated with vehicle, Z-VAD or Z-VAD+Nec-1 (n=6 each) (FIG. 11B) at three days after retinal detachment. […]
FIG. 11C-D show immunofluorescence for CD11b (FIG. 11C) and quantification of CD11b-positive macrophage/microglia (FIG. 11D) in WT and RIP-3−/− retina after retinal detachment.

photoreceptors [6] = assay: In vivo PI labeling of photoreceptors after retinal detachment in RIP-3−/− retinas; design: species or system RIP-3−/− mice; conditions: day 3 after retinal detachment
Description: In vivo propidium iodide (PI) staining was performed by injecting 5 μl of PI (50 μg/ml) into the subretinal space three days after retinal detachment. After two hours, the eyes were enucleated and 10 μm thick cryosections were cut, air-dried, and fixed in 100% ethanol. DAPI was used to counterstain the nuclei. The center of the detached retina was photographed by fluorescence microscope, and the number of PI-positive cells in ONL was analyzed by ImageJ software.
FIG. 8C-D show PI staining (FIG. 8C) and quantification of PI-positive photoreceptors (FIG. 8D) on day 3 after retinal detachment in retina treated with vehicle, Z-VAD or Nec-1 (a Nec-1 of Formula I-C) and Z-VAD in RIP-3−/− retina (n=5-6; C and D). *, P<0.05; **, P<0.01. Scale bar, 100 μm.

With `COC(=O)CC(NC(=O)C(C)NC(=O)C(NC(=O)OCc1ccccc1)C(C)C)C(=O)CF` (stereo not drawn) [Z-VAD, Benzyloxycarbonyl-Val-Ala-Asp(OMe)-fluoromethylketone] (Cbz-Val-Ala-Asp(OMe)-CH2F; configuration not given here) the “% apoptotic cells (TEM)” value (photoreceptors [1]) was 13.3±1.5%, the “% necrotic cells (TEM)” value (photoreceptors [1]) was 22.1±1.0% and the “% unclassified (TEM)” value (photoreceptors [1]) was 1.0±0.6%. For the same compound, the “normalized ONL thickness ratio” value (photoreceptors [2]; five days after retinal detachment) was 0.54±0.10, the “normalized ONL thickness ratio” value (photoreceptors [2]; three days after retinal detachment) was 0.72±0.08 and the Fas ligand expression (Fas-L) was “increased”. For the same compound, the ONL thickness ratio (photoreceptors [3]; day 3 and 5 after retinal detachment, RIP-3−/− retinas) was “augmented”, the “normalized ONL thickness ratio” value (photoreceptors [3]; five days after retinal detachment, RIP-3−/− mice) was 0.841±0.042 and the “% apoptotic cells (TEM)” value (photoreceptors [4]) was 11.4±1.2%. For the same compound, the “% necrotic cells (TEM)” value (photoreceptors [4]) was 21.9±2.3%, the “% unclassified (end-stage cell death, TEM)” value (photoreceptors [4]) was 5.6±1.4% and the “infiltration of CD11-b positive cells in the retina and subretinal space” value [5] was “even less infiltration”. For the same compound, the “number of photoreceptors with disrupted plasma membrane (in vivo PI-labeling)” value (photoreceptors [6]) was “not increased”.
